# Assay results from ChEMBL document CHEMBL1777706, “Discovery of selective and orally available spiro-3-piperidyl ATP-competitive MK2 inhibitors” (Bioorg Med Chem Lett, 2011).
# Active and inactive are the calls of the source. The calls are words filed in the database; no cut-off is given here.
# Target: Serine/threonine-protein kinase Chk2 (Homo sapiens) (UniProt O96017)
# Test: Inhibition of CHK2 at 1 uM
# Serine/threonine-protein kinase Chk2 (Homo sapiens), sequence (O96017 whole entry): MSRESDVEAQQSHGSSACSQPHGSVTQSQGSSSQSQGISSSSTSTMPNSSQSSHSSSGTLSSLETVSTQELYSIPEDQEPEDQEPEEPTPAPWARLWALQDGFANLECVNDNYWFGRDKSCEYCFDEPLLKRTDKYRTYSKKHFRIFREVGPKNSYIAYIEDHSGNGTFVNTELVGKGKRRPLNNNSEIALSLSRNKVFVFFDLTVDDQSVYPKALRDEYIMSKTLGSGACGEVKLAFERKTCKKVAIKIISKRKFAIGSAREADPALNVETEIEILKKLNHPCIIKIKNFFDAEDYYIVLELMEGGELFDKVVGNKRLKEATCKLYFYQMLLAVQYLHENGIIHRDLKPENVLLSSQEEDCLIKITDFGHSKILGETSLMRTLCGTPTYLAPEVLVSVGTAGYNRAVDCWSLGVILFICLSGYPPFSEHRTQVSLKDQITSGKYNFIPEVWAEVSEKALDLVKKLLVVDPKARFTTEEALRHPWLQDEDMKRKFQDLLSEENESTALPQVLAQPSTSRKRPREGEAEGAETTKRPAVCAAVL
row,inhibition [%],SMILES
1,> 80,COc1cncc(-c2nccc(-c3cc4c([nH]3)[C@@]3(CCCNC3)CNC4=O)n2)c1
2,> 80,O=C1NC[C@]2(CCCNC2)c2[nH]c(-c3ccnc(-c4cccnc4)n3)cc21
3,> 80,COc1cncc(-c2nccc(-c3cc4c([nH]3)C3(CCCNC3)CNC4=O)n2)c1 (racemic)

# Target: Serine/threonine-protein kinase pim-3 (Homo sapiens) (UniProt Q86V86)
# Test: Inhibition of PIM3 at 1 uM
row,inhibition [%],SMILES
1,> 80,COc1cncc(-c2nccc(-c3cc4c([nH]3)[C@@]3(CCCNC3)CNC4=O)n2)c1
2,> 80,O=C1NC[C@]2(CCCNC2)c2[nH]c(-c3ccnc(-c4cccnc4)n3)cc21
3,> 80,COc1cncc(-c2nccc(-c3cc4c([nH]3)C3(CCCNC3)CNC4=O)n2)c1 (racemic)

# Test system: not listed separately
# Test: Inhibition of p38
row,inhibition,SMILES
1,inactive,COc1cncc(-c2nccc(-c3cc4c([nH]3)[C@@]3(CCCNC3)CNC4=O)n2)c1
2,inactive,O=C1NC[C@]2(CCCNC2)c2[nH]c(-c3ccnc(-c4cccnc4)n3)cc21
3,inactive,COc1cncc(-c2nccc(-c3cc4c([nH]3)C3(CCCNC3)CNC4=O)n2)c1 (racemic)

# Target: T1, MAP kinase-activated protein kinase 2 (Homo sapiens, UniProt P49137)
# T1 sequence (P49137 whole entry): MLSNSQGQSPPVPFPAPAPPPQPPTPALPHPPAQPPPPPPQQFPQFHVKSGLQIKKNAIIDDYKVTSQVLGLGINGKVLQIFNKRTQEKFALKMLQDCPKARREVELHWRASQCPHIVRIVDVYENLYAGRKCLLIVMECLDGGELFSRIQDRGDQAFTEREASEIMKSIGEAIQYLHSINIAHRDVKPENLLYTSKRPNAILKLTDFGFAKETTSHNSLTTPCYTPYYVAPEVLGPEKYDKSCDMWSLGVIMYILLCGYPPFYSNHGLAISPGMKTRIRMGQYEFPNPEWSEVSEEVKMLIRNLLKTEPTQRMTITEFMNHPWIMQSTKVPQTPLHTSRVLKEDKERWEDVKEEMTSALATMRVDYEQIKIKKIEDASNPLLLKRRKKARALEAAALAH
# Test: Inhibition of MK2 in LPS-stimulated human THP1 cells assessed as inhibition of Hsp27 phosphorylation pretreated 60 mins before LPS challenge measured after 10 mins
# Assay type: cell-based, THP-1
row,EC50 [nM],SMILES
1,2300,COc1cncc(-c2nccc(-c3cc4c([nH]3)[C@@]3(CCCNC3)CNC4=O)n2)c1
2,5800,O=C1NC[C@]2(CCCNC2)c2[nH]c(-c3ccnc(-c4cccnc4)n3)cc21
3,900,COc1cncc(-c2nccc(-c3cc4c([nH]3)C3(CCCNC3)CNC4=O)n2)c1 (racemic)

# Target: Mitogen-activated protein kinase 3 (Homo sapiens) (UniProt P27361)
# Sequence (P27361 whole entry): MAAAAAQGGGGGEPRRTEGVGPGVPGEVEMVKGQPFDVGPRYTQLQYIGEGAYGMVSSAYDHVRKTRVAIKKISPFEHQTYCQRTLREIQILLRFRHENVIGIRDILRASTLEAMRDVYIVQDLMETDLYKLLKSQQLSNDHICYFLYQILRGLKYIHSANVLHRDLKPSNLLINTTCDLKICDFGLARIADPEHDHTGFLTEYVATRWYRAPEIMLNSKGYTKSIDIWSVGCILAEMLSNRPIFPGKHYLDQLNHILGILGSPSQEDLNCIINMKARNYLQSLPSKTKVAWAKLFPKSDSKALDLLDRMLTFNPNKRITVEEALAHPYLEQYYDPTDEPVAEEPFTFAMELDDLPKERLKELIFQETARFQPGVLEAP
# Test: Inhibition of ERK1 at 1 uM
row,inhibition [%],SMILES
1,> 80,COc1cncc(-c2nccc(-c3cc4c([nH]3)[C@@]3(CCCNC3)CNC4=O)n2)c1
2,> 80,O=C1NC[C@]2(CCCNC2)c2[nH]c(-c3ccnc(-c4cccnc4)n3)cc21
3,> 80,COc1cncc(-c2nccc(-c3cc4c([nH]3)C3(CCCNC3)CNC4=O)n2)c1 (racemic)

# Test system: PBMC
# Test: Antiinflammatory activity in human PBMC cells assessed as inhibition of LPS-induced TNFalpha production pretreated 30 mins before LPS challenge measured after 4 hrs by ELISA
# Assay type: functional, cell-based
row,SMILES,EC50 [nM]
1,COc1cncc(-c2nccc(-c3cc4c([nH]3)[C@@]3(CCCNC3)CNC4=O)n2)c1,> 10000
2,O=C1NC[C@]2(CCCNC2)c2[nH]c(-c3ccnc(-c4cccnc4)n3)cc21,4300
3,COc1cncc(-c2nccc(-c3cc4c([nH]3)C3(CCCNC3)CNC4=O)n2)c1 (racemic),1000

# Target: T2, Serine/threonine-protein kinase 17A (Homo sapiens) (UniProt Q9UEE5)
# T2 sequence (whole entry): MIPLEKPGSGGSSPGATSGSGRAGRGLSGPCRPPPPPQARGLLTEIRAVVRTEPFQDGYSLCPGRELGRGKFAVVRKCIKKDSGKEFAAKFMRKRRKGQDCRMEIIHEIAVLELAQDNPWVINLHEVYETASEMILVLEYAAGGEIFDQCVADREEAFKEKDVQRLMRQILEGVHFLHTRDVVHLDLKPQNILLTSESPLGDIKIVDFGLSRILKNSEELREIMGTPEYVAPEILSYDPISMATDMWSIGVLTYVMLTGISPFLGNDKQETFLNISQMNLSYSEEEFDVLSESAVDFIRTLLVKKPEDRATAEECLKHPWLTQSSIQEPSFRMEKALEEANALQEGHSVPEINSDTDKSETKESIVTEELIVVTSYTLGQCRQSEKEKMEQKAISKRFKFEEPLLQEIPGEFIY
# Test: Inhibition of DRAK1 at 1 uM
row,inhibition [%],SMILES
1,> 80,COc1cncc(-c2nccc(-c3cc4c([nH]3)[C@@]3(CCCNC3)CNC4=O)n2)c1
2,> 80,O=C1NC[C@]2(CCCNC2)c2[nH]c(-c3ccnc(-c4cccnc4)n3)cc21
3,> 80,COc1cncc(-c2nccc(-c3cc4c([nH]3)C3(CCCNC3)CNC4=O)n2)c1 (racemic)

# Test system: not listed separately
# Test: Half life in rat liver microsomes
# Assay type: ADME, Microsome
row,half-life [min],SMILES
1,42.1,COc1cncc(-c2nccc(-c3cc4c([nH]3)C3(CCCNC3)CNC4=O)n2)c1 (racemic)

# Test system: not listed separately
# Test: Dissociation constant, pKa of the compound at pH 7.4
# Assay type: physicochemical
row,pKa,SMILES
1,8.4,COc1cncc(-c2nccc(-c3cc4c([nH]3)C3(CCCNC3)CNC4=O)n2)c1 (racemic)

# Test system: THP-1
# Test: Antiinflammatory activity in human THP1 cells assessed as inhibition of LPS-induced TNFalpha production pretreated 30 mins before LPS challenge measured after 4 hrs
# Assay type: functional, cell-based
row,EC50 [nM],SMILES
1,2200,COc1cncc(-c2nccc(-c3cc4c([nH]3)[C@@]3(CCCNC3)CNC4=O)n2)c1
2,8700,O=C1NC[C@]2(CCCNC2)c2[nH]c(-c3ccnc(-c4cccnc4)n3)cc21
3,1400,COc1cncc(-c2nccc(-c3cc4c([nH]3)C3(CCCNC3)CNC4=O)n2)c1 (racemic)

# Target: T3, MAP kinase-activated protein kinase 5 (Homo sapiens) (UniProt Q8IW41)
# T3 sequence (whole entry): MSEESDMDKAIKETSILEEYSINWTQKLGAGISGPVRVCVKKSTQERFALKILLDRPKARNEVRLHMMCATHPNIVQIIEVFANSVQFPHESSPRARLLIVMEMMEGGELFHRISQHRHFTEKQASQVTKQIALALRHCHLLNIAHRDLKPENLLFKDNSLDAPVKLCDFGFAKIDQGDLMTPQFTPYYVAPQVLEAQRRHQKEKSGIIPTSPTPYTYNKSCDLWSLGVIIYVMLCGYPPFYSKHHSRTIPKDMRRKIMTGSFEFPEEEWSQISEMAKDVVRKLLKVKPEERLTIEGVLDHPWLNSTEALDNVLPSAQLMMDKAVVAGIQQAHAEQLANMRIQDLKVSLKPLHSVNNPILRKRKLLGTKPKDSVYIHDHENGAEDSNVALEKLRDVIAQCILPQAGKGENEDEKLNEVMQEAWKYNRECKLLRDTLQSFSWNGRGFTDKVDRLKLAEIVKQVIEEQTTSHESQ
# Test: Inhibition of MK5 at 1 uM
row,inhibition [%],SMILES
1,> 95,COc1cncc(-c2nccc(-c3cc4c([nH]3)C3(CCCNC3)CNC4=O)n2)c1 (racemic)

# Test system: not listed separately
# Test: Half life in human liver microsomes
# Assay type: ADME, Microsome
row,half-life [min],SMILES
1,56.7,COc1cncc(-c2nccc(-c3cc4c([nH]3)C3(CCCNC3)CNC4=O)n2)c1 (racemic)

# Target: Mitogen-activated protein kinase 1 (Homo sapiens) (UniProt P28482)
# Sequence (P28482 whole entry, looked up): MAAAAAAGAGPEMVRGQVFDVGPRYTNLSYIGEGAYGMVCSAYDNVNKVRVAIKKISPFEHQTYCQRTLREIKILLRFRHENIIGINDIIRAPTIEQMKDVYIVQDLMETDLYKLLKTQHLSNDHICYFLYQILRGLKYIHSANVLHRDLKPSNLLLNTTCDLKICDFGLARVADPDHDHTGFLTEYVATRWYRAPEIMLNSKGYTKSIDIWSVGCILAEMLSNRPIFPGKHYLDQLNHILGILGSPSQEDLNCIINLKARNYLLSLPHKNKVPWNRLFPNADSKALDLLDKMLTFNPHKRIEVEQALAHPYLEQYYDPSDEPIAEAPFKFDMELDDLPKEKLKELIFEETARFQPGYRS
# Test: Inhibition of ERK2 at 1 uM
row,inhibition [%],SMILES
1,> 80,COc1cncc(-c2nccc(-c3cc4c([nH]3)[C@@]3(CCCNC3)CNC4=O)n2)c1
2,> 80,O=C1NC[C@]2(CCCNC2)c2[nH]c(-c3ccnc(-c4cccnc4)n3)cc21
3,> 80,COc1cncc(-c2nccc(-c3cc4c([nH]3)C3(CCCNC3)CNC4=O)n2)c1 (racemic)

# Target: Serine/threonine-protein kinase pim-1 (Homo sapiens) (UniProt P11309)
# Sequence (P11309 whole entry, looked up): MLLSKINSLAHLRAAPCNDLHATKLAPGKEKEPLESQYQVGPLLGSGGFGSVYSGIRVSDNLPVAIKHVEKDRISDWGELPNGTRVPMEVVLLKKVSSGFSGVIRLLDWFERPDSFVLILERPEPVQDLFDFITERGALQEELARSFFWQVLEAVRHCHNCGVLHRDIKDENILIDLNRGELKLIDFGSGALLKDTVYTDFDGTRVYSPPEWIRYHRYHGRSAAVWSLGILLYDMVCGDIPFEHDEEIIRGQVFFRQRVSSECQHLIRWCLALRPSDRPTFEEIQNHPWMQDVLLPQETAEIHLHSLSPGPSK
# Test: Inhibition of PIM1 at 1 uM
row,inhibition [%],SMILES
1,> 80,COc1cncc(-c2nccc(-c3cc4c([nH]3)[C@@]3(CCCNC3)CNC4=O)n2)c1
2,> 80,O=C1NC[C@]2(CCCNC2)c2[nH]c(-c3ccnc(-c4cccnc4)n3)cc21
3,> 80,COc1cncc(-c2nccc(-c3cc4c([nH]3)C3(CCCNC3)CNC4=O)n2)c1 (racemic)

# Target: T1, MAP kinase-activated protein kinase 2
# Test: Inhibition of MK2 pretreated for 30 mins before fluorescein labeled substrate peptide addition measured after 2 hrs by IMAP assay
row,EC50 [nM],SMILES
1,126,COc1cncc(-c2nccc(-c3cc4c([nH]3)[C@@]3(CCCNC3)CNC4=O)n2)c1
2,288,O=C1NC[C@]2(CCCNC2)c2[nH]c(-c3ccnc(-c4cccnc4)n3)cc21
3,24,COc1cncc(-c2nccc(-c3cc4c([nH]3)C3(CCCNC3)CNC4=O)n2)c1 (racemic)

# Target: MAP kinase-activated protein kinase 3 (Homo sapiens) (UniProt Q16644)
# Sequence (Q16644 whole entry, looked up): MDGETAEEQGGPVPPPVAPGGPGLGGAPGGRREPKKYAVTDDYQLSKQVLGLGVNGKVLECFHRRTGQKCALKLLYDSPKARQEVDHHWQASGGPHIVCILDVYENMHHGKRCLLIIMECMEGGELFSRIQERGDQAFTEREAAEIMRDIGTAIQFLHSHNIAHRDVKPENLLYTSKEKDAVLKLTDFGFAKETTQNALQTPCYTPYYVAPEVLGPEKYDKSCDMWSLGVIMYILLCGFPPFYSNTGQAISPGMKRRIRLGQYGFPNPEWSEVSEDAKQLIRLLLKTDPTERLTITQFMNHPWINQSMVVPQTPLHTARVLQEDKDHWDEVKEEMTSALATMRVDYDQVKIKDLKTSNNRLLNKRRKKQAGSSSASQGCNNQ
# Test: Inhibition of MK3 at 1 uM
row,inhibition [%],SMILES
1,> 95,COc1cncc(-c2nccc(-c3cc4c([nH]3)C3(CCCNC3)CNC4=O)n2)c1 (racemic)
